Measurements: patent US10301320B2, “Compositions and methods of modulating 15-PGDH activity” (CASE WESTERN RESERVE UNIVERSITY, priority 2012, dated 2019)
Entries after “also recorded” stand apart in the source; their conditions may differ. Where two headings read alike, the source gives them in different places.

Columns and labels:
[1] = system: wild-type mouse bone marrow; experiment: Hematopoietic colonies from bone marrow treated ex vivo; format: cell-based; conditions: 1 uM, ex vivo on ice for 2 hours; compared with SW033291
From the text: Treated marrow is again then plated into methylcellulose for counting of hematopoietic colonies.

[2] = system: 15-PGDH-luciferase fusion reporter in V9m, LS174T and V503 cell lines; experiment: 15-PGDH-luciferase fusion gene reporter induction in three colon cancer cell lines (stated jointly); format: cell-based
[3] = system: 15-PGDH mRNA in colon cancer cell lines; experiment: 15-PGDH mRNA levels by real-time PCR; format: cell-based; conditions: treated colon cancer cell lines, real-time PCR
From the text: In these studies parental cell lines (not containing the 15-PGDH-luciferase reporter) are employed.

[4] = system: A549 cells; experiment: PGE2 levels in medium of IL1-beta stimulated A549 cells; format: cell-based; conditions: for Effect on PGE2 levels in medium, in words: IL1-beta stimulated A549 cells; for PGE2 levels achieved: IL-1β 16 h, compound 8 h, highest level of titration
[5] = system: V9m reporter cell line expressing a 15-PGDH luciferase fusion construct; experiment: 15-PGDH-luciferase fusion gene reporter induction, V9m cell line; format: cell-based; conditions: […], % increased luciferase activity over basal level
From the text: These cell lines are Vaco-9m (V9m), LS174T, Vaco503 (V503). […] Value of 1.0 on the Y-axis is the basal level of reporter activity in cells treated with drug free DMSO vehicle.
This Example provides data on a group of structural analogues of SW033291. Data provided includes level of induction of a 15-PGDH-luciferase fusion gene reporter, recorded as % increased luciferase activity over basal level, in three colon cancer cell lines, V9m, V503, and LS174T, engineered to contain the reporter, and treated with either 2.5 uM or 7.5 uM compound (i.e., Values are recorded on a scale where 100 indicates of doubling of luciferase activity over baseline level).
FIGS. 27(A-C) show graphs that show the level of compound's activity in inducing the 15-PGDH-luciferase fusion reporter in three different test cell line backgrounds, V9m, LS174T, and V503. Each compound was tested at two concentrations, 2.5 uM, and 7.5 uM. Y-axis is luciferase activity.
Data provided include level of induction of a 15-PGDH-luciferase fusion gene reporter, recorded as % induction of luciferase activity over basal level, in three colon cancer cell lines, V9m, V503, and LS174T, engineered to contain the reporter, and treated with either 2.5 uM or 7.5 uM compound. […] Additionally, for selected compounds is recorded the decrease in PGE2 levels in the media of compound treated A549 cells that have been stimulated with IL-1 beta. Additionally recorded for selected compounds is the effect on A549 cell viability as measured by a CellTiter-Glo assay, and the effect of compounds on A549 cell colony formation.

[6] = molecular target: T1, recombinant 15-PGDH protein (Homo sapiens (Human), UniProt P15428); experiment: Inhibition of enzymatic activity of recombinant 15-PGDH in vitro; format: biochemical; conditions: for inhibition at […]: read-out: Enzyme inhibition % ([…]), recombinant 15-PGDH, […] compound;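 as to all read-outs here: activity of recombinant human 15-PGDH assayed in vitro using PGE2 as the substrate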
[7] = molecular target: T1, recombinant 15-PGDH protein; experiment: Melting temperature shift of recombinant 15-PGDH (SYPRO Orange); format: binding
[8] = system: A549 cells; experiment: Cellular toxicity on A549 cells (CellTiter-Glo, cell numbers); format: cell-based; conditions: for Toxicity, CellTiter-Glo: 24 hours, up to 10 uM in FIG. 38
Method: Time to inhibition refers to the time needed to inhibit the generation of NADH by 15-PGDH from the moment with drug is added into the reaction mix. Delta™ refers to the shift in melting temperature of recombinant 15-PGDH in the presence of drug (with cofactor NADH also present). Concentration of Full Cell Line Reporter Induction refers to the concentration of drug that needs to be added to reporter cell line to achieve maximal induction of the 15-PGDH-luciferase gene fusion reporter cassette, as measured by luciferase assays. Hepatocyte stability refers to the half-life of compound in the presence of hepatocytes in culture. Toxicity refers to the concentration of compound needed to decrease cell numbers in a cell culture assay.
FIGS. 38(A-C) show assays of cellular toxicity on A549 cells at 24 hours of 15-PGDH inhibitors as assayed by CellTiter-Glo measurement.
FIGS. 84(A-C) show at left (84A) activity in lowering PGE2 levels in media of A549 cells that are stimulated to produce PGE2 by treatment with IL1-beta.

[9] = Metabolic stability with murine liver S9; format: in vitro ADME
Method: SW054384 (2 mM in DMSO) was incubated with Murine S9 (Lot KWB) fraction and Phase I (NADPH Regenerating System) cofactors for 0-240 minutes. Reactions were quenched with a 1 mL (1:1) of MeOH/(+)IS/0.2% Formic Acid, vortexed for 15 seconds, incubated at RT for 10 minutes and spun for 5 minutes at 2400 rpms. […] Supernatant (800 μL) was transferred to an HPLC vial (w/out insert) and analyzed by HPLC/MS. A: dH2O+0.1% FA B: MeOH+0.1% FA
SW125991 (2 mM in DMSO) was incubated with Murine S9 (Lot KWB) fraction and Phase I (NADPH Regenerating System) cofactors for 0-240 minutes. Reactions were quenched with 1 mL (1:1) of methanol containing 0.2% formic acid and 100 ng/ml IS (IS final conc.=50 ng/ml). Samples were vortexed for 15 seconds, incubated at RT for 10 minutes and spun for 5 minutes at 2400 rpm. […] Supernatant (800 μL) was transferred to an HPLC vial (w/out insert). Analyzed by Qtrap 3200 mass spectrometer.

[10] = read-out: Enzyme inhibition % (2.5 μM)
[11] = read-out: Enzyme inhibition % (7.5 μM)

T1 sequence (P15428 whole entry): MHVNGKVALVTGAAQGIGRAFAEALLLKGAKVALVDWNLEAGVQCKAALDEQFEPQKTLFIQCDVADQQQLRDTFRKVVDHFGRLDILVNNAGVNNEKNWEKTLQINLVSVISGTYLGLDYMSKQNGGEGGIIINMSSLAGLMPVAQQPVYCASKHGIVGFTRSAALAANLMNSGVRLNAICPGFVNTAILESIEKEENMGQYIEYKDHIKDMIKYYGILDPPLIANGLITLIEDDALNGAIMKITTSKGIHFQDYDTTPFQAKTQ

CCCCC[C@H](O)/C=C/[C@H]1[C@H](O)CC(=O)[C@@H]1C/C=C\CCCC(=O)O [PGE2, prostaglandin E2]
Increase in bone marrow derived colonies, in words [1]: lesser increase

O=C(c1ccc2nc(-c3ccccc3)c(-c3ccccc3)nc2c1)N1CCCCC1 [SW145753]
Induction of 15-PGDH-luciferase reporter, in words [2]: increase luciferase activity
15-PGDH mRNA levels [3]: do not in general alter 15-PGDH mRNA levels
Effect on PGE2 levels in medium, in words [4]: clear inhibition of 15-PGDH activity

CCCC[S+]([O-])c1sc2nc(-c3cccs3)ccc2c1N (stereo not drawn) [SW206980, 2-(butylsulfinyl)-6-(thiophen-2-yl)thieno[2,3-b]pyridin-3-amine]
V9M reporter activity ([…]) [5]: 92.71%
V9M reporter activity ([…]) ([5]; 100 = doubling): 99.37%
Induction of 15-PGDH-luciferase reporter, in words [2]: highly active compound in reporter induction; also recorded: activity comparable to SW033291
PGE2 levels achieved [4]: 2500 pg/mL

CCCC[S+]([O-])c1sc2nc(-c3nccs3)ccc2c1N (stereo not drawn) [SW206992, 2-(butylsulfinyl)-6-(thiazol-2-yl)thieno[2,3-b]pyridin-3-amine]
V9M reporter activity ([…]) [5]: 121.75%
V9M reporter activity ([…]) ([5]; 100 = doubling): 86.44%
Concentration for Full Cell Line Reporter Induction ([2]; maximal induction of reporter, printed in uM): >1 µM
Time to inhibition (10 nM) ([6]; time needed to inhibit generation of NADH after drug is added): ~2 min
Melting temperature ([7]; 15-PGDH 10 uM, compound 20 uM, NAD(+) 100 uM, control 49): 59 degrees
PGE2 levels achieved [4]: 2100 pg/mL
Toxicity, CellTiter-Glo [8]: No effect on CellTitre-Glo levels
Toxicity ([8]; concentration needed to decrease cell numbers in a cell culture assay): >7.5 µM

COc1ccc(OC)c(N(CC(=O)Nc2cccnc2)S(=O)(=O)c2ccccc2)c1 [SW054384]
Induction of 15-PGDH-luciferase reporter, in words [2]: increase luciferase activity
IC50 fold higher than that of SW033291 ([6]; FIG. 12): 10,000 fold
inhibition at […] [6, 10]: 20.2%
inhibition at […] [6, 11]: 58.2%
Direct binding to recombinant 15-PGDH ([7]; melting temperature shift): cannot be demonstrated to bind 15-PGDH
15-PGDH mRNA levels [3]: do not in general alter 15-PGDH mRNA levels
Effect on PGE2 levels in medium, in words [4]: lower level of PGE2 produced; also recorded: show activity in lowering PGE2

COc1ccc(S(=O)(=O)N(CC(=O)N2CCOCC2)c2cc(OC)ccc2OC)cc1 [SW207997]
Induction of 15-PGDH-luciferase reporter, in words [2]: activity equal to, or in some assays greater than, SW054384; also recorded: active in inducing the 15-PGDH-luciferase reporter
Inhibition of recombinant 15-PGDH, in words [6]: much less inhibition of enzymatic activity of 15-PGDH; also recorded: lesser inhibitory activity at high concentration
inhibition at […] [6, 10]: -7.08%
inhibition at […] [6, 11]: -0.86%
Reduction in levels of PGE2 in the medium, ranking ([4]; 100 nM drug, 15-PGDH activators): greatest reduction in levels of PGE2

COc1ccc(OC)c(N(CC(=O)N2CCOCC2)S(=O)(=O)c2ccccc2)c1 [SW125991]
Induction of 15-PGDH-luciferase reporter, in words [2]: retains activity in induction of the 15-PGDH-luciferase reporter assay; also recorded: active in inducing the 15-PGDH-luciferase reporter
Inhibition of recombinant 15-PGDH, in words [6]: less inhibition of 15-PGDH at high compound concentration; also recorded: lesser inhibitory activity at high concentration
inhibition at […] [6, 10]: 11.6%
inhibition at […] [6, 11]: 31.6%
Effect on PGE2 levels in medium, in words [4]: show activity in lowering PGE2
Toxicity, CellTiter-Glo [8]: no toxicity
Metabolic stability, in words [9]: marked improvement in metabolic stability

CCCCC(C)(C)[C@H](O)/C=C/[C@H]1[C@H](O)CC(=O)[C@@H]1C/C=C\CCCC(=O)O [dmPGE2, 16,16-dimethyl PGE2]
Increase in bone marrow derived colonies, in words [1]: slightly greater increase
